Reference: ChEMBL document CHEMBL1201862, “PubChem BioAssay data set” (2004)
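48-hour exposure; five concentrations; linearly interpolated endpoints. The concentration for 50% growth inhibition is given as GI50.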 The source made the active and inactive calls. Cut-off read from the data, not from the text of the source: active = GI50 up to about 1.1 µM and inactive = higher.

Tests used:
Test in all cases: NCI-60 cell line screen, 48 h
786-0 = test system: 786-0
A498 = test system: A498
A549 = test system: A549
ACHN = test system: ACHN
BT-549 = test system: BT-549
CAKI-1 = test system: CAKI-1
CCRF-CEM = test system: CCRF-CEM
COLO 205 = test system: COLO 205
DU-145 = test system: DU-145
EKVX = test system: EKVX
HCC 2998 = test system: HCC 2998
HCT-116 = test system: HCT-116
HCT-15 = test system: HCT-15
HL-60 = test system: HL-60
HOP-62 = test system: HOP-62
HOP-92 = test system: HOP-92
HT-29 = test system: HT-29
Hs-578T = test system: Hs-578T
IGROV-1 = test system: IGROV-1
K562 = test system: K562
KM12 = test system: KM12
LOX IMVI = test system: LOX IMVI
M14 = test system: M14
MCF7 = test system: MCF7
MDA-MB-231 = test system: MDA-MB-231
MDA-MB-435 = test system: MDA-MB-435
MDA-N = test system: MDA-N
MOLT-4 = test system: MOLT-4
Malme-3M = test system: Malme-3M
NCI-H226 = test system: NCI-H226
NCI-H23 = test system: NCI-H23
NCI-H460 = test system: NCI-H460
NCI-H522 = test system: NCI-H522
NCI/ADR-RES = test system: NCI/ADR-RES
OVCAR-3 = test system: OVCAR-3
OVCAR-4 = test system: OVCAR-4
OVCAR-5 = test system: OVCAR-5
OVCAR-8 = test system: OVCAR-8
PC-3 = test system: PC-3
RPMI-8226 = test system: RPMI-8226
SF-268 = test system: SF-268
SF-295 = test system: SF-295
SF-539 = test system: SF-539
SK-MEL-2 = test system: SK-MEL-2
SK-MEL-5 = test system: SK-MEL-5
SK-OV-3 = test system: SK-OV-3
SN12C = test system: SN12C
SNB-19 = test system: SNB-19
SNB-75 = test system: SNB-75
SR = test system: SR
SW-620 = test system: SW-620
T47D = test system: T47D
TK-10 = test system: TK-10
U-251 = test system: U-251
UACC-257 = test system: UACC-257
UACC-62 = test system: UACC-62
UO-31 = test system: UO-31
RXF 393 = test system: RXF 393
SK-MEL-28 = test system: SK-MEL-28

Structure (SMILES): CN(/N=C/c1ccc(Cl)cc1)C1=NCCCCN1
- GI50 (786-0): 99.8 µM (inactive)
- GI50 (A498): 56.9 µM (inactive)
- GI50 (A549): 93.8 µM (inactive)
- GI50 (ACHN): > 100 µM (inactive)
- GI50 (BT-549): > 100 µM (inactive)
- GI50 (CAKI-1): > 100 µM (inactive)
- GI50 (CCRF-CEM): 38.1 µM (inactive)
- GI50 (COLO 205): 35.1 µM (inactive)
- GI50 (DU-145): > 100 µM (inactive)
- GI50 (EKVX): > 100 µM (inactive)
- GI50 (HCC 2998): 44.6 µM (inactive)
- GI50 (HCT-116): 48.1 µM (inactive)
- GI50 (HCT-15): > 100 µM
- GI50 (HL-60): 30.3 µM (inactive)
- GI50 (HOP-62): > 100 µM (inactive)
- GI50 (HOP-92): 47.3 µM (inactive)
- GI50 (HT-29): 66.2 µM (inactive)
- GI50 (Hs-578T): > 100 µM (inactive)
- GI50 (IGROV-1): > 100 µM (inactive)
- GI50 (K562): 18.9 µM (inactive)
- GI50 (KM12): 50.5 µM (inactive)
- GI50 (LOX IMVI): 22.1 µM (inactive)
- GI50 (M14): 24.6 µM (inactive)
- GI50 (MCF7): > 100 µM (inactive)
- GI50 (MDA-MB-231): 35 µM (inactive)
- GI50 (MDA-MB-435): 72.1 µM (inactive)
- GI50 (MDA-N): > 100 µM (inactive)
- GI50 (MOLT-4): 26.7 µM (inactive)
- GI50 (Malme-3M): 62.8 µM (inactive)
- GI50 (NCI-H226): > 100 µM (inactive)
- GI50 (NCI-H23): > 100 µM (inactive)
- GI50 (NCI-H460): > 100 µM (inactive)
- GI50 (NCI-H522): 39.4 µM (inactive)
- GI50 (NCI/ADR-RES): > 100 µM (inactive)
- GI50 (OVCAR-3): > 100 µM (inactive)
- GI50 (OVCAR-4): > 100 µM (inactive)
- GI50 (OVCAR-5): > 100 µM (inactive)
- GI50 (OVCAR-8): > 100 µM (inactive)
- GI50 (PC-3): 32.9 µM (inactive)
- GI50 (RPMI-8226): > 100 µM (inactive)
- GI50 (SF-268): > 100 µM (inactive)
- GI50 (SF-295): > 100 µM (inactive)
- GI50 (SF-539): > 100 µM (inactive)
- GI50 (SK-MEL-2): > 10 µM (inactive)
- GI50 (SK-MEL-5): 53.2 µM (inactive)
- GI50 (SK-OV-3): > 100 µM (inactive)
- GI50 (SN12C): 81.5 µM (inactive)
- GI50 (SNB-19): > 100 µM (inactive)
- GI50 (SNB-75): 68.7 µM (inactive)
- GI50 (SR): > 100 µM (inactive)
- GI50 (SW-620): > 100 µM (inactive)
- GI50 (T47D): > 100 µM (inactive)
- GI50 (TK-10): > 100 µM (inactive)
- GI50 (U-251): > 100 µM (inactive)
- GI50 (UACC-257): > 100 µM (inactive)
- GI50 (UACC-62): 67.1 µM (inactive)
- GI50 (UO-31): > 100 µM (inactive)

Structure (SMILES): CC1=NN(c2ccc(S(=O)(=O)O)cc2)C(=O)/C1=C/c1ccc(Cl)cc1.c1ccncc1
- GI50 (786-0): > 100 µM (inactive)
- GI50 (A498): > 100 µM (inactive)
- GI50 (A549): > 100 µM (inactive)
- GI50 (ACHN): > 100 µM (inactive)
- GI50 (BT-549): > 100 µM (inactive)
- GI50 (CAKI-1): > 100 µM (inactive)
- GI50 (CCRF-CEM): > 100 µM (inactive)
- GI50 (COLO 205): > 100 µM (inactive)
- GI50 (DU-145): > 100 µM (inactive)
- GI50 (EKVX): > 100 µM (inactive)
- GI50 (HCT-116): > 100 µM (inactive)
- GI50 (HCT-15): > 100 µM
- GI50 (HL-60): > 100 µM (inactive)
- GI50 (HOP-62): > 100 µM (inactive)
- GI50 (HOP-92): > 100 µM (inactive)
- GI50 (HT-29): > 100 µM (inactive)
- GI50 (Hs-578T): > 100 µM (inactive)
- GI50 (IGROV-1): > 100 µM (inactive)
- GI50 (K562): > 100 µM (inactive)
- GI50 (KM12): > 100 µM (inactive)
- GI50 (LOX IMVI): > 100 µM (inactive)
- GI50 (M14): > 100 µM (inactive)
- GI50 (MCF7): > 100 µM (inactive)
- GI50 (MDA-MB-231): > 100 µM (inactive)
- GI50 (MDA-MB-435): > 100 µM (inactive)
- GI50 (MDA-N): > 100 µM (inactive)
- GI50 (MOLT-4): > 100 µM (inactive)
- GI50 (Malme-3M): > 100 µM (inactive)
- GI50 (NCI-H226): > 100 µM (inactive)
- GI50 (NCI-H23): > 100 µM (inactive)
- GI50 (NCI-H460): > 100 µM (inactive)
- GI50 (NCI-H522): > 100 µM (inactive)
- GI50 (NCI/ADR-RES): > 100 µM (inactive)
- GI50 (OVCAR-3): > 100 µM (inactive)
- GI50 (OVCAR-4): > 100 µM (inactive)
- GI50 (OVCAR-5): > 100 µM (inactive)
- GI50 (OVCAR-8): > 100 µM (inactive)
- GI50 (PC-3): > 100 µM (inactive)
- GI50 (RPMI-8226): > 100 µM (inactive)
- GI50 (RXF 393): > 100 µM (inactive)
- GI50 (SF-268): > 100 µM (inactive)
- GI50 (SF-295): > 100 µM (inactive)
- GI50 (SF-539): > 100 µM (inactive)
- GI50 (SK-MEL-28): > 100 µM (inactive)
- GI50 (SK-MEL-2): > 100 µM (inactive)
- GI50 (SK-MEL-5): > 100 µM (inactive)
- GI50 (SK-OV-3): > 100 µM (inactive)
- GI50 (SN12C): > 100 µM (inactive)
- GI50 (SNB-19): > 100 µM (inactive)
- GI50 (SNB-75): > 100 µM (inactive)
- GI50 (SR): > 100 µM (inactive)
- GI50 (SW-620): > 100 µM (inactive)
- GI50 (T47D): > 100 µM (inactive)
- GI50 (TK-10): > 100 µM (inactive)
- GI50 (U-251): > 100 µM (inactive)
- GI50 (UACC-257): > 100 µM (inactive)
- GI50 (UACC-62): > 100 µM (inactive)
- GI50 (UO-31): > 100 µM (inactive)
